Measurements: US20120157529A1 (priority 2009, published 2012)

Tests used:
ToxT-activated genes = conditions: cited from earlier work
ToxT [1] = biological target: T1, ToxT (Vibrio cholerae serotype O1, UniProt A5F384); test: Electrophoretic mobility shift assay of ToxT binding to tcp promoter DNA; assay type: biochemical; conditions: fatty acid 0.002%; 30 minutes at 30° C.
T1 construct: Full-length ToxT was cloned from Vibrio cholerae 0395; made in house; host or cells: E. coli BL21-CODONPLUS (DE3)-RIL
T1 sequence (A5F384 1-276): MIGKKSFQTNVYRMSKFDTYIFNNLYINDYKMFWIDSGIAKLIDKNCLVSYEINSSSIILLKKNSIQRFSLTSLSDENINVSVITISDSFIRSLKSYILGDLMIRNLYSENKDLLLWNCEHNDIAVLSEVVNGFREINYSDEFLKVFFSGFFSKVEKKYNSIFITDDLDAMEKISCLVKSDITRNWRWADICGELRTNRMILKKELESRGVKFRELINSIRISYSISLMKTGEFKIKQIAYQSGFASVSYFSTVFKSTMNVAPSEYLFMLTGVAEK
Description: Electrophoretic Mobility Shift Assays. Single-stranded, forty base-pair complimentary oligos (Operon) from the tcp promoter (5′-GTGTTATTAAAAAAATAAAAAAACACAGCAAAAAATGACA-3′; SEQ ID NO:1) were end labeled with a biotin-conjugated dUTP using the Biotin 3′ End Labeling Kit (Pierce) following the manufacturer's instructions and then annealed to form double-stranded fragments. EMSA's were carried out using the LightShift Chemiluminescent EMSA Kit (Pierce) following the manufacturer's instructions. Briefly, 2.5 pmole, 4 pmole, 5 pmole of ToxT were mixed with 50 fmole of double-stranded labeled DNA in a binding buffer (10 mM Tris pH 7.5, 1 mM EDTA, 100 mM KCl, 5 mM MgCl2, 1 mM DTT, 0.3 mg mL^−1 BSA, 150 μg herring sperm DNA, and 10% glycerol). Fatty acids were dissolved in methanol and added to a final concentration of 0.002% using the same volume of methanol as a control. To show specificity, a 70-fold molar excess of unlabeled double-stranded tcp fragment and a 70-fold molar excess of unlabeled nonspecific DNA (42 base pairs) were added as controls. Reactions were then incubated for 30 minutes at 30° C. and loaded on a 1×TBE 6% polyacrylamide gel at 4° C. then transferred onto a positively charged membrane (HYBOND XL, GE Healthcare) and detected by chemiluminescence. An EMSA experiment was conducted using the control reagents from the LightShift Chemiluminescent EMSA Kit following the manufacturer's instructions while adding methanol and 0.02% fatty acids.

tcp and ctx operons = test: β-galactosidase assay of tcp-lacZ and ctx-lacZ fusions in V. cholerae cultures with added fatty acids; assay type: cell-based, Vibrio cholerae; conditions: fatty acid at 0.02% in methanol; LB medium pH 6.5, 30° C., 18 hours
Description: Expression is based upon β-galactosidase activity of tcpA-lacZ and ctx-lacZ fusion constructs, respectively. Cells were grown in LB medium pH 6.5 at 30° C. for 18 hours +/− the indicated fatty acids at 0.02% dissolved in methanol. C, control with methanol; PA, sodium palmitate; POA, palmitoleic acid; OA, oleic acid.
β-galactosidase Assays. β-galactosidase activity was determined by conventional methods (Miller (1972) Experiments in Molecular Genetics (Cold Spring Harbor Laboratory Press, Cold Spring Harbor, N.Y.). The tcp-lacZ and ctx-lacZ strains MBN135 (Nye, et al. (2000) J. Bacteriol. 182:4295-4303) and KSK218 (Skorupski & Taylor (1997) Proc. Natl. Acad. Sci. USA 94:265-270) were grown for 18 hours in LB media pH 6.5 at 30° C. Either methanol or the indicated fatty acids were added to 0.02%.
To address whether cis-palmitoleate was capable of influencing the activity of ToxT, different UFAs and SFAs were added to cultures of V. cholerae strains carrying transcriptional fusions to the tcp and ctx operons. […].

V. cholerae strain 0395 = test: Infant mouse cholera model, survival at 48 hours post-infection; assay type: in vivo; conditions: for protection of mice from cholera / survival versus control and methanol groups: infant mouse, 48 hours post-infection, Tukey HSD p<0.05
Description: FIG. 3 is a means diamond plot. Mouse lethality data was converted to survival rates based on percentage of 48 hours at time of death. A one-way ANOVA was used to test for survival rate differences among the five groups in the challenge assay. […] Arcsine transformations were performed on the data to remove possible bias caused by percentages but there was no difference between transformed and non-transformed data. A means diamond illustrates a sample mean and 95% confidence interval. The line across each diamond represents the group mean. The vertical span of each diamond represents the 95% confidence interval for each group. Overlap marks are drawn above and below the group mean. […] The horizontal extent of each group along the x-axis (the horizontal size of the diamond) is proportional to the sample size of each level of the x variable. It follows that the narrower diamonds are usually the taller ones because fewer data points yield a less precise estimate of the group mean. Control is bacteria in broth. MeOH is methanol and MeOHC received a second dose of methanol 1 hour after infection. PA is 0.2% palmiteoleic acid dissolved in methanol and PAC includes a second dose of 0.2% palmiteoleic acid administered 1 hour after infection.
Palmiteoleic acid (0.2%) dissolved in methanol was co-administered orally with approximately a 10 lethal dose 50 (LD50) of V. cholerae strain 0395. In some cases an additional administration of palmiteoleic acid was given to the mice one hour after infection. The ability of palmiteoleic acid to prevent death from cholera was assessed at 48 hours post-infection. The results are presented in FIG. 3 as a means diamond plot.

ToxT [2] = biological target: T1, ToxT; conditions: cited from earlier work
ToxT [3] = biological target: ToxT (Vibrio cholerae O395, UniProt A5F384 A5F384:1-276); test: EMSA; bound at 100-fold molar excess of protein (5 pmol ToxT to 50 fmol DNA), not at 50-fold; competed by 70-fold unlabeled probe; 5 mM MgCl2, 100 mM KCl, pH 7.5, 30; conditions: tags: full-length; expressed as intein/CBD fusion (pTXB1, NEB IMPACT-CN), tag cleaved with DTT; label: 3' biotin-dUTP

## CCCCC/C=C\C/C=C\C/C=C\C/C=C\CCCC(=O)O [arachidonic acid]
ToxT-activated genes
  inhibition of expression of ToxT-activated genes: strongly inhibit

## CCCCC/C=C\C/C=C\CCCCCCCC(=O)O [linoleic acid]
ToxT-activated genes
  inhibition of expression of ToxT-activated genes: strongly inhibit

## CCCCCCCC/C=C\CCCCCCCC(=O)O [oleic acid]
ToxT [1]
  effect on ToxT binding to DNA (40 base-pair tcp promoter probe): completely prevented ToxT from binding to DNA
Tcp and ctx operons
  reduction of expression of tcp and ctx operons (β-galactosidase activity of lacZ fusions): 10-15 fold
ToxT-activated genes
  inhibition of expression of ToxT-activated genes: strongly inhibit

## CCCCCCCCCCCCCCCC(=O)O [palmitic acid]
ToxT [1]
  effect on ToxT binding to DNA (40 base-pair tcp promoter probe): no effect on ToxT binding
Tcp and ctx operons
  reduction of expression of tcp and ctx operons (β-galactosidase activity of lacZ fusions): two-fold
ToxT-activated genes
  inhibition of expression of ToxT-activated genes: not shown to inhibit

## CCCCCC/C=C\CCCCCCCC(=O)O [palmitoleic acid, (Z)-9-hexadecenoic acid]
V. cholerae strain 0395; 0.2% co-administered orally plus second dose 1 hour after infection, group PAC {5}
  mean survival rate (percentage of 48 hours at time of death): 89.389%
V. cholerae strain 0395; 0.2% in methanol co-administered orally with about 10 LD50 V. cholerae 0395, group PA {4}
  mean survival rate (percentage of 48 hours at time of death): 80.093%
V. cholerae strain 0395; listed as PA
  protection of mice from cholera / survival versus control and methanol groups: significantly higher survival rates
V. cholerae strain 0395; listed as palmiteoleic acid
  protection of mice from cholera / survival versus control and methanol groups: extremely effective at protecting the mice from cholera
ToxT [1]
  effect on ToxT binding to DNA (40 base-pair tcp promoter probe): completely prevented ToxT from binding to DNA
Tcp and ctx operons
  reduction of expression of tcp and ctx operons (β-galactosidase activity of lacZ fusions): 6-8 fold

## CCCCCCCCCCCCCCCCCC(=O)O [stearic acid]
ToxT-activated genes
  inhibition of expression of ToxT-activated genes: not shown to inhibit

## O=C(O)CCCN1C(=O)c2cccc3cccc(c23)C1=O [virstatin, 4-[N-(1,8-naphthalimide)]-n-butyric acid]
ToxT [2]
  effect on ToxT dimerization and activation of tcp and ctx promoter transcription: interferes with ToxT's ability to dimerize and activate transcription of the tcp and ctx promoters

B1: tcp promoter 40 bp toxbox probe (dsDNA)
DNA 1: GTGTTATTAAAAAAATAAAAAAACACAGCAAAAAATGACA
DNA 2: TGTCATTTTTTGCTGTGTTTTTTTATTTTTTTAATAACAC
ToxT [3]
  binding result: binds
